A short description of data set [1]: Selectivity index, ratio of CC50 for mouse RAW264.7 cells to IC50 for Trypanosoma cruzi Tulahuen amastigotes infected in mouse L929 cells. It counts as toxicity, cell-based. The following applies: read-out: Ratio CC50/IC50.
Data set [2] relates to Trypanosoma cruzi. Kind of data set: Induction of morphological changes in Trypanosoma cruzi trypomastigotes assessed as appearance of loss of cytoplasmic content at 2 times IC50 incubated for 24 hrs by SEM analysis. It counts as functional, organism-based.
The subject of data set [3] is Splenocyte. Put plainly: Immunomodulatory activity in mouse splenocytes assessed as effect on IFN-gamma level at 10 ug/ml incubated for 24 to 96 hrs by flow cytometry. It counts as functional, cell-based. The settings on record: dose 10.0 µg/ml, time 24-96 hrs. Background: In flow cytometry, cells or beads pass a laser one at a time.
For data set [4], the system named is Trypanosoma cruzi. Put plainly: Antitrypanosomal activity against Trypanosoma cruzi Y trypomastigotes infected in African green monkey Vero cells assessed as parasite growth inhibition incubated for 24 hrs by hemocytometry. It counts as functional, organism-based.
The test system of data set [5] is Trypanosoma cruzi. Kind of data set: Induction of apoptosis in Trypanosoma cruzi trypomastigotes assessed as late apoptotic cells at IC50 incubated for 24 hrs by annexin V-FITC/PI staining based flow cytometry (reference value: 2.58 %). The class given is functional.
Data set [6] concerns Trypanosoma cruzi. Kind of data set: Induction of morphological changes in Trypanosoma cruzi trypomastigotes assessed as appearance of contorted body at IC50 incubated for 24 hrs by SEM analysis. The class given is functional, organism-based.
For data set [7], the system named is Splenocyte. Put plainly: Immunomodulatory activity in mouse splenocytes assessed as increase in IL-6 level at 10 ug/ml incubated for 48 to 72 hrs by flow cytometry. The following applies: dose 10.0 µg/ml, time 48-72 hrs. It counts as functional, cell-based.
In data set [8] the test system is Trypanosoma cruzi. Put plainly: Induction of morphological changes in Trypanosoma cruzi trypomastigotes assessed as appearance of shortened flagellum at IC50 incubated for 24 hrs by SEM analysis. The class given is functional, organism-based.
For data set [9], the system named is Trypanosoma cruzi. Kind of data set: Induction of morphological changes in Trypanosoma cruzi trypomastigotes assessed as appearance of rounded body at 2 times IC50 incubated for 24 hrs by SEM analysis. The class given is functional, organism-based.
Data set [10] concerns Splenocyte. Put plainly: Immunomodulatory activity in mouse splenocytes assessed as increase in IL-6 level at 10 ug/ml incubated for 24 hrs by flow cytometry. It counts as functional, cell-based. The settings on record: dose 10.0 µg/ml.
Data set [11] in a line: Selectivity index, ratio of CC50 for mouse RAW264.7 cells to IC50 for Leishmania amazonensis WHOM/00 LTB 0016 promastigotes. The following applies: read-out: Ratio CC50/IC50. It counts as toxicity.
The subject of data set [12] is Trypanosoma cruzi. Kind of data set: Induction of apoptosis in Trypanosoma cruzi trypomastigotes assessed as early apoptotic cells at 2 times IC50 incubated for 24 hrs by annexin V-FITC/PI staining based flow cytometry (reference value: 0.10 %). It counts as functional.
Data set [13] relates to Trypanosoma cruzi. Kind of data set: Induction of apoptosis in Trypanosoma cruzi trypomastigotes assessed as late apoptotic cells at 2 times IC50 incubated for 24 hrs by annexin V-FITC/PI staining based flow cytometry (reference value: 2.58 %). The class given is functional.
Data set [14] in a line: Selectivity index, ratio of CC50 for mouse RAW264.7 cells to IC50 for Trypanosoma cruzi Y trypomastigotes infected in African green monkey Vero cells. The settings on record: read-out: Ratio CC50/IC50. The class given is toxicity.
The test system of data set [15] is Leishmania amazonensis. Kind of data set: Antileishmanial activity against Leishmania amazonensis WHOM/00 LTB 0016 promastigotes assessed as parasite growth inhibition incubated for 72 hrs. The following applies: WHOM/00 LTB 0016, 72 h. It counts as functional, organism-based.
Data set [16] is described as follows: Selectivity index, ratio of CC50 for mouse RAW264.7 cells to IC50 for Leishmania amazonensis WHOM/00 LTB 0016 amastigotes infected in mouse RAW264.7 cells. The class given is toxicity, cell-based. The settings on record: read-out: Ratio CC50/IC50.
In data set [17] the test system is Trypanosoma cruzi. Kind of data set: Induction of apoptosis in Trypanosoma cruzi trypomastigotes assessed as early apoptotic cells at IC50 incubated for 24 hrs by annexin V-FITC/PI staining based flow cytometry (reference value: 0.10 %). It counts as functional.
For data set [18], the system named is Trypanosoma cruzi. Put plainly: Antitrypanosomal activity against Trypanosoma cruzi Tulahuen amastigotes infected in mouse L929 cells assessed as parasite growth inhibition measured after 7 days by CPRG/Nonidet based assay. The settings on record: L929, 168 h. It counts as functional, organism-based.
Data set [19] relates to Splenocyte. Put plainly: Immunomodulatory activity in mouse splenocytes assessed as reduction in IL-10 level at 10 ug/ml incubated for 24 hrs by flow cytometry. It counts as functional, cell-based. The following applies: dose 10.0 µg/ml.
For data set [20], the system named is Trypanosoma cruzi. Kind of data set: Induction of apoptosis in Trypanosoma cruzi trypomastigotes assessed as necrotic cells at 2 times IC50 incubated for 24 hrs by annexin V-FITC/PI staining based flow cytometry (reference value: 4.05 %). The class given is functional.
Data set [21] has as its system Trypanosoma cruzi. Kind of data set: Induction of morphological changes in Trypanosoma cruzi trypomastigotes membrane assessed as appearance of membrane rupture at 2 times IC50 incubated for 24 hrs by SEM analysis.
For data set [22], the system named is Trypanosoma cruzi. Put plainly: Induction of morphological changes in Trypanosoma cruzi trypomastigotes assessed as appearance of thinned flagellum at 2 times IC50 incubated for 24 hrs by SEM analysis. It counts as functional, organism-based.
Data set [23] relates to Leishmania amazonensis. Put plainly: Antileishmanial activity against Leishmania amazonensis WHOM/00 LTB 0016 amastigotes infected in mouse RAW264.7 cells assessed as parasite growth inhibition incubated for 24 hrs by panoptic staining based assay. The settings on record: WHOM/00 LTB 0016, RAW264.7, 24 h. It counts as functional, organism-based.
A short description of data set [24]: Cytotoxicity against mouse RAW264.7 cells incubated for 48 hrs by MTT assay. The class given is toxicity, cell-based. (Tetrazolium dyes change colour on reduction, which living cells bring about.)
In data set [25] the test system is Trypanosoma cruzi. Put plainly: Induction of apoptosis in Trypanosoma cruzi trypomastigotes assessed as necrotic cells at IC50 incubated for 24 hrs by annexin V-FITC/PI staining based flow cytometry (reference value: 4.05 %). The class given is functional.
Data set [26] in a line: Cytotoxicity in BALB/c mouse splenocytes incubated for 24 hrs by [3H]-thymidine based liquid scintillation counter analysis. It counts as toxicity, cell-based, Splenocyte.
The test system of data set [27] is Trypanosoma cruzi. Kind of data set: Antitrypanosomal activity against Trypanosoma cruzi Y trypomastigotes assessed as parasite growth inhibition incubated for 24 hrs by Neubauer chamber based analysis. The class given is functional, organism-based.

Activity calls are given as the source filed them. The rule behind the calls is not given here.

One may read the IC50 as the point on the concentration scale where inhibition reaches its midpoint. In general, CC50 refers to the concentration that lowers cell viability or growth by half.

In the case of `CC1(C)S/C(=N/N=C/c2ccccn2)N(c2ccccc2)C1=O`, the selectivity ratio in data set [1] stood at 228; in [11], 3.5; in [14], 162; in data set [16], 15.2. The result with Trypanosoma cruzi [2], in the data set with Trypanosoma cruzi [6], in the data set with Splenocyte [7], with Trypanosoma cruzi [8], in the data set on Trypanosoma cruzi [9] and with Splenocyte [10] was Active. In addition, the result in the data set with Splenocyte [19], in the data set on Trypanosoma cruzi [21] and in the data set on Trypanosoma cruzi [22] was Active. In the data set with Splenocyte [3], the outcome was inactive. Further, the IC50 in the data set on Trypanosoma cruzi [4] came to 0.9 µM; with Leishmania amazonensis [15] it was 42.2 µM; in the data set on Trypanosoma cruzi [18], 0.64 µM; in the data set with Leishmania amazonensis [23] it was 9.58 µM. Moreover, the Activity in the data set on Trypanosoma cruzi [5] was 3.66%; with Trypanosoma cruzi [12] it was 0.33%; in the data set on Trypanosoma cruzi [13], 4.4%; with Trypanosoma cruzi [17], 0.18%; with Trypanosoma cruzi [20], 21.27%; in the data set with Trypanosoma cruzi [25], 21.53%. The compound also yielded a CC50 at 48 h in data set [24] of 146 µM.
The compound `C/C(=N\N=C1/NC(=O)C(c2ccccc2)S1)c1cc(Cl)ccc1Cl` (configuration not stated) returned a CC50 at 24 h in data set [26] of at least 100 µM. The IC50 with Trypanosoma cruzi [27] amounted to 0.84 µM.

The record behind these values is ChEMBL document CHEMBL5325424, “Structural design, synthesis, and anti-Trypanosomatidae profile of new Pyridyl-thiazolidinones” (Eur J Med Chem, 2023).
